The results in this text go back to PubChem BioAssay AID651581 (Sanford-Burnham Center for Chemical Genomics, 2012).

Experiment [1] deals with Hypoxia-inducible factor 1-alpha (Homo sapiens) (UniProt Q16665). Nature of the experiment: HIF-2a and HIF-1a reporter inhibition panel, dose response, selectivity assay for HIF-2a inhibitor project, cell-based, luminescence (AID 651581). Conditions: HIF-1a.
In experiment [2] the target is Endothelial PAS domain-containing protein 1 (Homo sapiens) (UniProt Q99814). The experiment is described as above.

SMILES strings stand for the structures. Activity calls are given as the source filed them. No rule for the calls is given here. A value given as a limit tells only on which side of the number the result lay.

Hypoxia-inducible factor 1-alpha (Homo sapiens), sequence (Q16665 whole entry, looked up, the tested form may be a part): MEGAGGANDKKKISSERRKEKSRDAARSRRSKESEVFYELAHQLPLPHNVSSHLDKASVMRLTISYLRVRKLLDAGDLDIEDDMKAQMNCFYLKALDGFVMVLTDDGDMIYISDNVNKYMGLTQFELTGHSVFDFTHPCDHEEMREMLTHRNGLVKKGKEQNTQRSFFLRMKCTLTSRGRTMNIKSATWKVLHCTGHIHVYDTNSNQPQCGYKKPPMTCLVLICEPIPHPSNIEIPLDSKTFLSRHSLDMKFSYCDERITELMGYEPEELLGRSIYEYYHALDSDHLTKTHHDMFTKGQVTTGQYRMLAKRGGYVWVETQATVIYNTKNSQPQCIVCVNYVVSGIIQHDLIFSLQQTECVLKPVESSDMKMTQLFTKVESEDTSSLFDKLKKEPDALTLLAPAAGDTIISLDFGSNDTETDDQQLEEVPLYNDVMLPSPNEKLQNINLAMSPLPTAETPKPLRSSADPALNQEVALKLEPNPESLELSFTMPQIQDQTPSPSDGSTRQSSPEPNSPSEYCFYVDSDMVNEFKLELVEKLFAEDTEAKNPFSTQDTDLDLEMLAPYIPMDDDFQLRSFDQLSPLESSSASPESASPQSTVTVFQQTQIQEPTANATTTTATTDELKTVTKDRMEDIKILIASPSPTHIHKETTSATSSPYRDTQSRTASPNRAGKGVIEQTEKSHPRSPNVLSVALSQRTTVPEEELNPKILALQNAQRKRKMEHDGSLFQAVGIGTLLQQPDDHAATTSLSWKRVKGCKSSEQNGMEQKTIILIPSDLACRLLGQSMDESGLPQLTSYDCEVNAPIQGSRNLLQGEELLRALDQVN

A word on the IC50: it is the concentration at which inhibition is half-maximal. Consider `Cc1c(CCC(=O)N[C@@H](CC(C)C)C(=O)O)c(=O)oc2cc3oc4c(c3cc12)CCCC4`, for which the IC50 entry in experiment [1] (mean of runs) was “inactive”. Besides, the IC50 is 2.65 µM in experiment [1] (run 1); 4.05 µM in experiment [1] (run 2); 2.77 µM in experiment [2] (HIF-2a PANC, mean of runs); 2.58 µM in experiment [2] (HIF-2a PANC, run 1); 2.96 µM in experiment [2] (HIF-2a PANC, run 2); 1.61 µM in experiment [2] (HIF-2a, mean of runs). Besides, the IC50 was determined as 1.61 µM in experiment [2] (HIF-2a, run 1) and 1.61 µM in experiment [2] (HIF-2a, run 2).
Turning to `Cc1c(CCC(=O)O)c(=O)oc2cc(OCc3ccccc3Br)ccc12`, the IC50 entry in experiment [1] (mean of runs) was “inactive”. The half-maximal inhibitory concentration (IC50) in experiment [1] (run 1) was 8.16 µM; in experiment [1] (run 2), 20.8 µM; in experiment [2] (HIF-2a PANC, mean of runs), 5.79 µM; in experiment [2] (HIF-2a PANC, run 1), 2.48 µM; in experiment [2] (HIF-2a PANC, run 2), 9.09 µM; in experiment [2] (HIF-2a, mean of runs), 6.3 µM. Also, the IC50 in experiment [2] (HIF-2a, run 1) came out at 6.05 µM; in experiment [2] (HIF-2a, run 2), 6.54 µM.
In the case of `CCCCOC(=O)c1ccc(NC(=S)NC(=O)c2c(Br)c(C)nn2C)cc1`, the IC50 in experiment [1] (run 1) was over 99 µM; in experiment [1] (run 2), over 99 µM; in experiment [2] (HIF-2a PANC, run 1) it was 8.11 µM; in experiment [2] (HIF-2a PANC, run 2), 16.2 µM; in experiment [2] (HIF-2a, mean of runs) it was 0.894 µM; in experiment [2] (HIF-2a, run 1), 0.821 µM. This compound gave an IC50 in experiment [2] (HIF-2a, run 2) of 0.968 µM. In experiment [2] (HIF-2a PANC, mean of runs), the IC50 entry was “inactive”.
Regarding `Cc1ccc(NC(=O)c2cc(N3C(=O)C=CC3=O)ccc2N2CCOCC2)cc1`, the IC50 in experiment [1] (run 1) was 64.3 µM; in experiment [1] (run 2), over 99 µM; in experiment [2] (HIF-2a PANC, mean of runs), > 99 µM (inactive); in experiment [2] (HIF-2a PANC, run 1), over 99 µM; in experiment [2] (HIF-2a PANC, run 2), over 99 µM; in experiment [2] (HIF-2a, mean of runs), 9.77 µM. The IC50 in experiment [2] (HIF-2a, run 1) is 9.64 µM; in experiment [2] (HIF-2a, run 2), 9.9 µM.
As for `CCOc1cc(/C=N/Nc2cccc(C(=O)O)c2)ccc1OC(=O)c1ccccc1`, the concentration for half-maximal inhibition (IC50) in experiment [1] (run 1) is over 99 µM; in experiment [1] (run 2) it was over 99 µM; in experiment [2] (HIF-2a PANC, run 1) it was over 99 µM; in experiment [2] (HIF-2a PANC, run 2), 30.1 µM; in experiment [2] (HIF-2a, mean of runs), 4.22 µM; in experiment [2] (HIF-2a, run 1), 4.44 µM. Besides, the IC50 in experiment [2] (HIF-2a, run 2) was determined as 4 µM.
For the compound `Cc1ccc(S(=O)(=O)ON2C(=O)c3ccccc3C2=O)c(C)c1`, the IC50 in experiment [1] (run 1) is over 99 µM; in experiment [1] (run 2), over 99 µM; in experiment [2] (HIF-2a PANC, run 1) it was over 99 µM; in experiment [2] (HIF-2a PANC, run 2) it was 38.7 µM; in experiment [2] (HIF-2a, mean of runs), 5.62 µM; in experiment [2] (HIF-2a, run 1), 5.63 µM. Besides, in experiment [2] (HIF-2a, run 2), the IC50 was 5.6 µM.
In the case of `CC(=O)Nc1ccc(OS(=O)(=O)c2c(C)cc(C)cc2C)cc1`, the IC50 is 64.6 µM in experiment [1] (mean of runs); 80 µM in experiment [1] (run 1); 49.2 µM in experiment [1] (run 2); > 99 µM (inactive) in experiment [2] (HIF-2a PANC, mean of runs); over 99 µM in experiment [2] (HIF-2a PANC, run 1); over 99 µM in experiment [2] (HIF-2a PANC, run 2). The IC50 in experiment [2] (HIF-2a, run 1) is 12.5 µM; in experiment [2] (HIF-2a, run 2), 10.9 µM. For the same compound, the IC50 entry in experiment [2] (HIF-2a, mean of runs) is “inactive”.
Regarding `CS(=O)(=O)c1ccc(-c2cn3cc(C(=O)O)ccc3n2)cc1`, the IC50 in experiment [1] (mean of runs) is > 99 µM (inactive); in experiment [1] (run 1) it was over 99 µM; in experiment [1] (run 2) it was over 99 µM; in experiment [2] (HIF-2a PANC, run 1), 86.7 µM; in experiment [2] (HIF-2a PANC, run 2) it was over 99 µM; in experiment [2] (HIF-2a, run 1), 28.8 µM. In addition, the IC50 in experiment [2] (HIF-2a, run 2) worked out at 47.2 µM. Also, in experiment [2] (HIF-2a, mean of runs), the IC50 result is “inactive”.
With `C/C(=N\OCc1cccc(C(=O)O)c1)c1ccc(Cl)cc1`, the IC50 in experiment [1] (run 1) was over 99 µM; in experiment [1] (run 2), over 99 µM; in experiment [2] (HIF-2a PANC, mean of runs), > 99 µM (inactive); in experiment [2] (HIF-2a PANC, run 1), over 99 µM; in experiment [2] (HIF-2a PANC, run 2) it was over 99 µM; in experiment [2] (HIF-2a, run 1) it was under 10 µM. The same compound had an IC50 in experiment [2] (HIF-2a, run 2) of 5.87 µM.
`CCOC(=O)c1sc(NC(=O)c2cc3c(s2)CCC(C)C3)nc1C` (stereo unspecified): the IC50 in experiment [1] (run 1) was 20.5 µM; in experiment [1] (run 2), over 99 µM; in experiment [2] (HIF-2a PANC, run 1) it was under 1 µM; in experiment [2] (HIF-2a PANC, run 2), over 99 µM; in experiment [2] (HIF-2a, run 1), 0.2 µM; in experiment [2] (HIF-2a, run 2), over 99 µM.
In the case of `Cc1ccc(NC(=O)c2cc(N3C(=O)C=CC3=O)ccc2N2CCOCC2)cc1Cl`, the IC50 in experiment [1] (mean of runs) is 49.8 µM; in experiment [1] (run 1), 60.4 µM; in experiment [1] (run 2), 39.3 µM; in experiment [2] (HIF-2a PANC, run 1) it was 76.3 µM; in experiment [2] (HIF-2a PANC, run 2) it was over 99 µM; in experiment [2] (HIF-2a, mean of runs) it was 5.36 µM. For the same compound, the IC50 was 5.12 µM in experiment [2] (HIF-2a, run 1) and 5.61 µM in experiment [2] (HIF-2a, run 2).
